# Measured values reported in patent US8853215B2, “Derivatives of N-acyl-N′-phenylpiperazine useful (inter alia) for the prophylaxis or treatment of diabetes” (Takeda Pharmaceutical Company Limited, priority 2009, dated 2014).
# What was measured:
# human RBP4 = human RBP4 (Homo sapiens (Human), UniProt P02753); experiment: Binding assay by Retinol-RBP4-TTR ELISA; conditions: for IC50: retinol 50 nM, His-tagged human RBP4, biotinylated human TTR, read-out: human RBP4 binding inhibitory activity (IC50 nM)
# Protocol: The action of the compound of the present invention to inhibit binding of RBP4 and retinol and TTR was evaluated using the Retinol-RBP4-TTR ELISA system shown below.
# 1F: Binding Assay by Retinol-RBP4-TTR ELISA
# This ELISA system detects a complex of RBP4 and TTR based on a retinol-dependent binding of RBP4 to TTR.
# His-tagged human RBP4 used was prepared in the above-mentioned 1C.
# Biotinylate human TTR used was prepared in the above-mentioned 1E.
# Streptavidin (20 μl) (10 μg/ml Streptavidin type II (Wako Pure Chemical Industries, Ltd.), 10 mM Tris-HCl (pH 7.5), 10 mM NaCl) was added to a 384 well black plate (Nunc MaxiSorp, Thermo Fisher Scientific Inc.), and the plate was subjected to centrifugation (1000 rpm, 1 min) and coated overnight at 4° C. The plate was washed twice with PBST (PBS, 0.05% Tween 20, 100 μl/well) and blocked with 25% Block Ace (Snow Brand Milk Products Co., Ltd., PBS, 100 μl/well). The plate was subjected to centrifugation (1000 rpm, 1 min) and incubated at room temperature for 4 hr or overnight at 4° C. The plate was washed twice with PBST (PBS, 0.05% Tween 20, 100 μl/well), and biotinylate human TTR (stock solution concentration 1.0 mg/ml) diluted 750-fold with PBST was added at 20 μl/well. The plate was subjected to centrifugation (1000 rpm, 1 min) and stood still at room temperature for 1.5 hr or overnight at 4° C. The plate was washed 3 times with PBST (100 μl/well), and His-tagged human RBP4 (stock solution concentration 0.96 mg/ml) diluted 4000-fold with a reaction buffer (50 mM Tris-HCl, 150 mM NaCl, 0.005% Tween 20, 1 mM DTT, 0.1% BSA) was added at 10 μl/well. The dilution series (8 doses from 10 mM, 200-fold concentration) of the compound was prepared with DMSO, and 1 μl of each was added to a reaction buffer (200 μl) containing retinol (50 nM) (Sigma-Aldrich Co.). A reaction buffer (200 μl) containing retinol and added with DMSO was used as a positive control, and reaction buffer (200 μl) free of retinol and added with DMSO was used as a negative control. Mixed solutions of retinol and the compound were added to the plate at 15 μl/well. The plate was stirred in a platemixer subjected to centrifugation (1000 rpm, 1 min) and reacted at room temperature for 2 hr. A 35% Block Ace solution diluted with the reaction buffer was added at 10 μl/well, centrifuged (1000 rpm, 1 min) and reacted at room temperature for 30 min. The plate was washed 3 times with PBST (100 μl/well) and SuperSignal ELISA Femto Maximum Sensitivity Substrate reagent (PIERCE, Thermo Fisher Scientific Inc.) was added at 30 μl/well, and the luminescence was measured by a platereader (Wallac).
# The binding inhibitory activity of the compound was determined by 100×(positive control value-test compound value)/(positive control value-negative control value). The binding activity (IC50) was calculated from the binding inhibitory rate at each compound concentration using a graph drawing software, GraphPad Prism (GraphPad Software Inc.).
# RBP4 [1] = molecular target: RBP4 (Rattus norvegicus (Rat), UniProt P04916); experiment: Single administration test in Wistar fatty rats, plasma RBP4 by ELISA; type: in vivo; conditions: male Wistar fatty rats, 10 mg/kg oral single dose, mean±SD; for RBP4 (% of initial/Control) 0 hr: 0 hr (just before the administration); for RBP4 (% of initial/Control) 4 hr: 4 hr after administration; for RBP4 (% of initial/Control) 7 hr: 7 hr after administration; for RBP4 (% of initial/Control) 24 hr: 24 hr after administration
# Protocol: The action of the compounds of the present invention to lower plasma RBP4 level was evaluated using the animal model shown below.
# (§1) Male Wistar fatty rats (fa/fa) were bred in Takeda Pharmaceutical Company Limited and maintained on normal diet (CE2, CLAE Japan, Inc.) and tap water. Animals were housed in a temperature-controlled room adjusted to a 12-hour light/12-hour dark cycle beginning at 7:00 and 19:00, respectively. All procedures were conducted according to the experimental animal care use committee of Takeda Pharmaceutical Company.
# (§2) Male 13-43-week-old Wistar fatty rats were divided into groups randomly. Compounds were suspended in 0.5% (w/v) methylcellulose in water and given orally to Wistar fatty rats at a dose of 10 mg/10 mL/kg of body weight (3-5 rats per group). Blood samples were obtained from tail vein with sodium heparin as an anticoagulant at time 0 hr (just before the administration), 4 hr, 7 hr, and 24 hr after the administration, followed by plasma separation by centrifugation. Plasma RBP4 levels were measured by enzyme-linked immunosorbent assay described in the following section.
# (§3) Plasma samples were analyzed in duplicate for RBP4 by an enzyme-linked immunosorbent assay. Mouse recombinant RBP4 (Takeda Pharmaceutical Company Limited) was used as standards, and the assay range was 0.313-20 ng/ml. Samples were diluted 10,000-fold with phosphate-buffered saline (PBS) (Sigma) containing 10% (w/v) BlockAce (Dainippon Sumitomo Pharma Co., Ltd). Rabbit anti-RBP4 polyclonal antibody (100 μL/well of 50 μg/mL, Hokudo Co, Ltd) was incubated in a 96-well plate (Nalge Nunc International K.K.) for overnight at 4° C. Subsequently, the plates were washed with PBS-T (Wako Pure Chemical Industries, Ltd.) and blocked with PBS containing 25% BlockAce for 1 hr at room temperature. After another washing with PBS-T, samples and standards were applied to the well, and the plates were incubated for 2 hr at room temperature. After a washing the wells, peroxidase-labeled (Dojindo Laboratories) anti-RBP4 (100 μL/well) was added to the wells, and then the plates were incubated for 1 hr at room temperature. After a final washing with PBS-T, substrate solution 3,3,5,5-tetramethylbenzidine (Sigma) was added to the wells, and the plates were placed in the dark for 5-20 min at room temperature. The reaction was stopped with 0.5 M sulphuric acid and the optical density was measured with a spectrophotometer at 450 nm. The changes in plasma RBP4 levels were expressed as % of initial/Control. All data are presented as mean±SD.
# Zucker fatty rats = experiment: Repeated drug administration test in Zucker fatty rats, plasma glucose and glycosylated hemoglobin; type: in vivo, Zucker fatty rats (fa/fa)
# Protocol: The effect of the compound of the present invention on plasma levels of glucose and glycosylated hemoglobin were evaluated using the animal model shown below.
# as §1, with “Zucker” for “Wistar”, “(fa/fa) and their lean littermates (Fa/?)” for “(fa/fa)”, “Company Limited.” for “Company.”
# From 8 weeks of age, Zucker fatty rats were maintained on a high fat diet (D06110702, 20 kCal % fat) (LSG Corporation, Japan). A compound was suspended in 0.5% (w/v) methylcellulose in water and given orally to rats at a volume of 5 mL/kg of body weight. After 4 days of pre-administration of 0.5% (w/v) methylcellulose, rats were divided based on body weight, glycosylated hemoglobin, and plasma glucose (PG) (n=6 each). Drug administration was started at 15 weeks of age and a drug (10 mg/kg) was administered once a day for 28 days.
# Before and 28 days after the administration, blood samples were obtained from tail vein with sodium heparin as an anticoagulant, followed by plasma separation by centrifugation. Plasma glucose (PG) levels were measured enzymatically by an Autoanalyzer 7180 (Hitachi, Japan). Glycosylated hemoglobin levels were analyzed by a high performance liquid chromatography-based method using an automated analyzer HLC-723 or HLC-723 G7 (Tosoh, Japan). The changes in glycosylated hemoglobin were calculated by subtracting the initial value from final value.
# RBP4 [2] = molecular target: RBP4 (Mus musculus (Mouse), UniProt Q00724); experiment: Single administration test in mice, plasma RBP4 by ELISA; type: in vivo; conditions: male C57BL/6J or ICR mice, 50 mg/kg oral single dose, mean±SD
# Protocol: The action of the compounds of the present invention to reduce plasma RBP4 level was evaluated using the animal model shown below.
# Male C57BL/6J and ICR mice were purchased from Charles River (Japan) and maintained on a normal diet (CE2, CLAE Japan, Inc.) and tap water. Animals were housed in a temperature-controlled room adjusted to a 12-hour light/12-hour dark cycle beginning at 7:00 and 19:00, respectively. All procedures were conducted according to the experimental animal care use committee of Takeda Pharmaceutical Company.
# as §2, with “Male 6-12-week-old C57BL/6J or ICR mice were housed individually and fed CE2 for 4-6 days. After acclimatization, mice” for “Male 13-43-week-old Wistar fatty rats”, “groups based on their body weight.” for “groups randomly.”, “to mice” for “to Wistar fatty rats”, “of 50” for “of 10”, “weight (three to five mice” for “weight (3-5 rats”, “from orbital” for “from tail”
# as §3, with “Company)” for “Company Limited)”
# [3] = Zucker fatty rats, 10 mg/kg, 28 days repeated administration
Compound,IC50 (human RBP4) [nM],RBP4 (% of initial/Control) 0 hr (RBP4 [1]),RBP4 (% of initial/Control) 4 hr (RBP4 [1]),RBP4 (% of initial/Control) 7 hr (RBP4 [1]),RBP4 (% of initial/Control) 24 hr (RBP4 [1]),"Glycosylated hemoglobin (%) (Zucker fatty rats; Zucker fatty rats on high fat diet, 10 mg/kg oral once a day for 28 days, change = final minus initial value, mean±SD)","PG (% of initial/Vehicle) (Zucker fatty rats; Zucker fatty rats on high fat diet, 10 mg/kg oral once a day for 28 days, plasma glucose, mean±SD)",effect on PG (in words) (Zucker fatty rats; [3]),effect on glycosylated hemoglobin (in words) (Zucker fatty rats; [3]),RBP4 (% of initial/Control) 0 hr (RBP4 [2]; 0 hr (just before the administration)),RBP4 (% of initial/Control) 4 hr (RBP4 [2]; 4 hr after administration),RBP4 (% of initial/Control) 7 hr (RBP4 [2]; 7 hr after administration),RBP4 (% of initial/Control) 24 hr (RBP4 [2]; 24 hr after administration),"inhibition at 10 µM (human RBP4; at 10 μM compound, read-out: human RBP4 binding inhibitory activity(% at 10 μM)) [%]"
"CC(C)(C)c1ccccc1N1CCN(C(=O)CCC(=O)NS(C)(=O)=O)CC1 [Example 55, 4-(4-(2-tert-Butylphenyl)piperazin-1-yl)-N-(methylsulfonyl)-4-oxobutanamide]",64,100.0 ± 5.3 % of initial/Control,36.8 ± 5.8 % of initial/Control,31.6 ± 7.7 % of initial/Control,54.4 ± 14.3 % of initial/Control,,,,,,,,,
"CC(C)(C)c1ccccc1N1CCN(C(=O)NCC(=O)O)CC1 [Example 6, N-{[4-(2-tert-Butylphenyl)piperazin-1-yl]carbonyl}glycine]",540,100 ± 14.1 % of initial/Control,36.2 ± 5.0 % of initial/Control,27.4 ± 5.9 % of initial/Control,104.5 ± 4.4 % of initial/Control,0.95 ± 0.67,70.0 ± 19.7 % of initial/Vehicle,decreased PG significantly,tended to decrease glycosylated hemoglobin (not significant),,,,,
"CC(C)(C)c1ccccc1N1CCN(C(=O)Cc2nnn[nH]2)CC1 [Example 58, 1-(4-(2-tert-Butylphenyl)piperazin-1-yl)-2-(1H-tetrazol-5-yl)ethanone]",300,100.0 ± 8.7 % of initial/Control,76.2 ± 11 % of initial/Control,89.1 ± 15.4 % of initial/Control,97.9 ± 10.4 % of initial/Control,,,,,,,,,
"CC(C)(C)c1ccccc1N1CCN(C(=O)CC(=O)O)CC1 [Example 9, 3-[4-(2-tert-Butylphenyl)piperazin-1-yl]-3-oxopropanoic acid]",54,100.0 ± 8.5 % of initial/Control,49.6 ± 1.3 % of initial/Control,49.2 ± 1.9 % of initial/Control,114.3 ± 6.0 % of initial/Control,,,,,,,,,
"CC(C)(C)c1cc(Cl)ccc1N1CCN(C(=O)C(=O)O)CC1 [Example 180, [4-(2-tert-Butyl-4-chlorophenyl)piperazin-1-yl](oxo)acetic acid]",,,,,,,,,,100.0 ± 23.0 % of initial/Control,63.0 ± 2.0 % of initial/Control,61.0 ± 2.2 % of initial/Control,93.0 ± 9.6 % of initial/Control,100
